Data as given in patent publication EP3046573B1, “AMYLIN ANALOGUES” (Zealand Pharma A/S, priority 2013, dated 2015).
Numbered stars: 1 amine (or outer) side, 2 acyl side, 3 side chain; on linkers, the order of the positions; unused ones are H or OH. Bridge positions count the residues as written; N and C are the ends. Square brackets hold non-standard residues; d marks the D form. Peptide text beside a SMILES is read from it. * marks the point of attachment. C20 diacid = O=C(O)CCCCCCCCCCCCCCCCCCC(=O)*; γGlu = O=C(O)[C@H](CCC(=O)[*:2])N[*:1]; NMeI = CC[C@H](C)[C@H](NC)C(=O)O; NMeA = CN[C@@H](C)C(=O)O; Sar = CNCC(=O)O

How the values were obtained:
[1] = biological target: T1, human calcitonin receptor (hCTR2) (Homo sapiens, UniProt P30988); assay: hCTR2 assay: induction of cAMP (AlphaScreen cAMP Assay kit) in COS7 cells expressing hCTR2; type: cell-based
T1 construct: expressed in transfected cells
T1 sequence (P30988 25-474): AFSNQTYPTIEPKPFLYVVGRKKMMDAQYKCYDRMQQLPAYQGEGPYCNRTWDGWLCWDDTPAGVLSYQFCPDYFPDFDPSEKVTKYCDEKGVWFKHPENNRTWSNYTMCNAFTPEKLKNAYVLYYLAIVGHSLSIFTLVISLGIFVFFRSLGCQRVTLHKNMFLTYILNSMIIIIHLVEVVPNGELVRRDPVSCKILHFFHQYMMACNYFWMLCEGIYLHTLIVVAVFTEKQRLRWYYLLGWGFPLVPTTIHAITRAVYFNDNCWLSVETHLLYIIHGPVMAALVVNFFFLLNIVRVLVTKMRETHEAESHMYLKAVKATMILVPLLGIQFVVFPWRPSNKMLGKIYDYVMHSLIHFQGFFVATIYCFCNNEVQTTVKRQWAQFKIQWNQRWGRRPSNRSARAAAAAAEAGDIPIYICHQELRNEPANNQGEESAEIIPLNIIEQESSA
Procedure, shortened: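 Stable hCTR2 clone in RAMP-naive COS7 cells; peptides titrated in Tyrode buffer (pH 7.4) with 100 µM IBMX, 0.1% casein, 15 min at 37° C. cAMP read by AlphaScreen after lysis; EC50 and efficacy relative to pramlintide from 4PL fit.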

[2] = biological target: T2, human amylin receptor 3 (hAMYR3) consisting of hCTR2 co-expressed with human Receptor Activity Modifying Protein 3 (hRAMP3) (Homo sapiens, UniProt O60896+P30988); assay: hAMYR3 assay: induction of cAMP (AlphaScreen cAMP Assay kit) in COS7 cells expressing hAMYR3; type: cell-based
T2 construct: expressed in transfected cells
T2 sequence (P30988 25-474): T1 sequence (P30988 25-474)
T2 sequence (O60896 24-148 partner): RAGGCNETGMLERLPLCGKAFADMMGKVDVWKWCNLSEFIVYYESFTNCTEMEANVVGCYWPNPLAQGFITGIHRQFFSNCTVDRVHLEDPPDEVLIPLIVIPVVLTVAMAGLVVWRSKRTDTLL
Procedure, shortened: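 Stable COS7 clone co-expressing hCTR2 and hRAMP3, stimulated 15 min at 37° C with increasing peptide in Tyrode buffer pH 7.4 with 100 µM IBMX and 0.1% casein. cAMP measured by AlphaScreen after lysis; EC50 and % efficacy versus pramlintide from 4PL fit.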

[3] = Solubility assessment (turbidity absorbance at 325 nm); type: physicochemical; settings: stock 2 mg/ml diluted 1:1, ambient temperature (typically 25°C), n=1; for Solubility, Acetate buffer pH 4: 100 mM acetate buffer pH 4.0; for Solubility, Acetate buffer pH 5: 100 mM acetate buffer pH 5.0; for Solubility, Histidine buffer pH 6: 100 mM histidine buffer pH 6.0; for Solubility, Histidine buffer pH 7: 100 mM histidine buffer pH 7.0; for Solubility, Phosphate buffer pH 6: 100 mM phosphate buffer pH 6.0; for Solubility, Phosphate buffer pH 7: 100 mM phosphate buffer pH 7.0; for Solubility, Phosphate buffer pH 7.5: 100 mM phosphate buffer pH7.5
Procedure, shortened: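 Stock 2 mg/ml peptide, H2O/HCl pH 2.5; 1:1 into 100 mM buffers: acetate pH 4.0/5.0, His pH 6.0/7.0, phosphate pH 6.0/7.0/7.5. A280 + A325, ~25°C, n=1. Soluble ≥ 1 mg/ml if A325 ≤ 0.02.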

SMILES | EC50 [1] | EC50 [2] | Solubility, Acetate buffer pH 4 [3] | Solubility, Acetate buffer pH 5 [3] | Solubility, Histidine buffer pH 6 [3] | Solubility, Histidine buffer pH 7 [3] | Solubility, Phosphate buffer pH 6 [3] | Solubility, Phosphate buffer pH 7 [3] | Solubility, Phosphate buffer pH 7.5 [3]
CC[C@H](C)[C@@H](C(=O)N[C@@H](CC(C)C)C(=O)N[C@@H](CO)C(=O)N[C@@H](CO)C(=O)N[C@H](C(=O)N[C@@H](CC(N)=O)C(=O)N[C@H](C(=O)NCC(=O)N[C@@H](CO)C(=O)N[C@@H](CC(N)=O)C(=O)N[C@H](C(=O)N(C)[C@@H](C)C(N)=O)[C@@H](C)O)C(C)C)[C@@H](C)O)N(C)C(=O)[C@H](C)NC(=O)CN(C)C(=O)[C@H](Cc1ccccc1)NC(=O)[C@H](CC(N)=O)NC(=O)[C@H](CC(N)=O)NC(=O)[C@H](CO)NC(=O)[C@H](CO)NC(=O)[C@H](CCCNC(=N)N)NC(=O)[C@H](Cc1c[nH]cn1)NC(=O)[C@H](CC(C)C)NC(=O)[C@H](Cc1ccccc1)NC(=O)[C@H](CCC(=O)O)NC(=O)[C@H](C)NC(=O)[C@H](CC(C)C)NC(=O)[C@H](CCCNC(=N)N)NC(=O)[C@H](CCC(N)=O)NC(=O)[C@@H](NC(=O)[C@H](C)NC(=O)[C@@H]1CSSC[C@H](NC(=O)[C@H](CCCNC(=N)N)NC(=O)CC[C@H](NC(=O)CCCCCCCCCCCCCCCCCCC(=O)O)C(=O)O)C(=O)N[C@@H](CC(N)=O)C(=O)N[C@@H]([C@@H](C)O)C(=O)N[C@@H](C)C(=O)N[C@@H]([C@@H](C)O)C(=O)N1)[C@@H](C)O [Compound 102, [19CD]-isoGlu-RC()NTATC()ATQRLAEFLHRSSNNF-Gly(Me)-A-Ile(Me)-LSSTNVGSNT-Ala(Me)-NH2] ({C20 diacid-γGlu}-RCNTATCATQRLAEFLHRSSNNF[Sar]A[NMeI]LSSTNVGSNT[NMeA]-NH2; disulfide 2-7) | 0.42 nM | 1 nM | SS (SS indicates solubility ≥ 1mg/ml) | II (II indicates solubility ≤ 1 mg/ml) | SS (SS indicates solubility ≥ 1mg/ml) | SS (SS indicates solubility ≥ 1mg/ml) | II (II indicates solubility ≤ 1 mg/ml) | SS (SS indicates solubility ≥ 1mg/ml) | SS (SS indicates solubility ≥ 1mg/ml)
CC[C@H](C)[C@@H](C(=O)N[C@@H](CC(C)C)C(=O)N[C@@H](CO)C(=O)N[C@@H](CO)C(=O)N[C@H](C(=O)N[C@@H](CC(N)=O)C(=O)N[C@H](C(=O)NCC(=O)N[C@@H](CO)C(=O)N[C@@H](CC(N)=O)C(=O)N[C@H](C(=O)N(C)[C@H](C(N)=O)[C@@H](C)CC)[C@@H](C)O)C(C)C)[C@@H](C)O)N(C)C(=O)[C@H](C)NC(=O)CN(C)C(=O)[C@H](Cc1ccccc1)NC(=O)[C@H](CC(N)=O)NC(=O)[C@H](CC(N)=O)NC(=O)[C@H](CO)NC(=O)[C@H](CO)NC(=O)[C@H](CCCNC(=N)N)NC(=O)[C@H](Cc1c[nH]cn1)NC(=O)[C@H](CC(C)C)NC(=O)[C@H](Cc1ccccc1)NC(=O)[C@H](CCC(=O)O)NC(=O)[C@H](C)NC(=O)[C@H](CC(C)C)NC(=O)[C@H](CCCNC(=N)N)NC(=O)[C@H](CCC(N)=O)NC(=O)[C@@H](NC(=O)[C@H](C)NC(=O)[C@@H]1CSSC[C@H](NC(=O)[C@H](CCCNC(=N)N)NC(=O)CC[C@H](NC(=O)CCCCCCCCCCCCCCCCCCC(=O)O)C(=O)O)C(=O)N[C@@H](CC(N)=O)C(=O)N[C@@H]([C@@H](C)O)C(=O)N[C@@H](C)C(=O)N[C@@H]([C@@H](C)O)C(=O)N1)[C@@H](C)O [Compound 103, [19CD]-isoGlu-RC()NTATC()ATQRLAEFLHRSSNNF-Gly(Me)-A-Ile(Me)-LSSTNVGSNT-Ile(Me)-NH2H2] ({C20 diacid-γGlu}-RCNTATCATQRLAEFLHRSSNNF[Sar]A[NMeI]LSSTNVGSNT[NMeI]-NH2; disulfide 2-7) | 0.65 nM | 5.1 nM | SS (SS indicates solubility ≥ 1mg/ml) | SS (SS indicates solubility ≥ 1mg/ml) | SS (SS indicates solubility ≥ 1mg/ml) | SS (SS indicates solubility ≥ 1mg/ml) | II (II indicates solubility ≤ 1 mg/ml) | SS (SS indicates solubility ≥ 1mg/ml) | SS (SS indicates solubility ≥ 1mg/ml)
CC[C@H](C)[C@@H](C(=O)N[C@@H](CC(C)C)C(=O)N[C@@H](CO)C(=O)N[C@@H](CO)C(=O)N[C@H](C(=O)N[C@@H](CC(N)=O)C(=O)N[C@H](C(=O)NCC(=O)N[C@@H](CO)C(=O)N[C@@H](CC(N)=O)C(=O)N[C@H](C(=O)N1CCC[C@@H]1C(N)=O)[C@@H](C)O)C(C)C)[C@@H](C)O)N(C)C(=O)[C@H](C)NC(=O)CN(C)C(=O)[C@H](Cc1ccccc1)NC(=O)[C@H](CC(N)=O)NC(=O)[C@H](CC(N)=O)NC(=O)[C@H](CO)NC(=O)[C@H](CO)NC(=O)[C@H](CCCNC(=N)N)NC(=O)[C@H](Cc1c[nH]cn1)NC(=O)[C@H](CC(C)C)NC(=O)[C@H](Cc1ccccc1)NC(=O)[C@H](CCC(=O)O)NC(=O)[C@H](C)NC(=O)[C@H](CC(C)C)NC(=O)[C@H](CCCNC(=N)N)NC(=O)[C@H](CCC(N)=O)NC(=O)[C@@H](NC(=O)[C@H](C)NC(=O)[C@@H]1CSSC[C@H](NC(=O)[C@H](CCCNC(=N)N)NC(=O)CC[C@H](NC(=O)CCCCCCCCCCCCCCCCCCC(=O)O)C(=O)O)C(=O)N[C@@H](CC(N)=O)C(=O)N[C@@H]([C@@H](C)O)C(=O)N[C@@H](C)C(=O)N[C@@H]([C@@H](C)O)C(=O)N1)[C@@H](C)O [Compound 104, [19CD]-isoGlu-RC()NTATC()ATQRLAEFLHRSSNNF-Gly(Me)-A-Ile(Me)-LSSTNVGSNT-DPro-NH2] ({C20 diacid-γGlu}-RCNTATCATQRLAEFLHRSSNNF[Sar]A[NMeI]LSSTNVGSNT[dP]-NH2; disulfide 2-7) | 0.7 nM | 4.8 nM | SS (SS indicates solubility ≥ 1mg/ml) | SS (SS indicates solubility ≥ 1mg/ml) | SS (SS indicates solubility ≥ 1mg/ml) | SS (SS indicates solubility ≥ 1mg/ml) | II (II indicates solubility ≤ 1 mg/ml) | SS (SS indicates solubility ≥ 1mg/ml) | SS (SS indicates solubility ≥ 1mg/ml)
